Results published in the supplement of paper PMC10307832.

Tests used:
Assay in all cases: relative viability (nuclei count vs DMSO), 5 days (fraction); higher = more cells survive
[1] = tested on: EKVX
Procedure, shortened: (§1)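 Lung cancer cell lines, seeded in 1536-well plates, were treated the following day by pin tool with a single drug or with five library-drug doses (not always all listed) in √10 steps on top of a fixed anchor-drug dose. Cells were fixed and nuclei stained in one step after 5 days, and nuclei were counted. Relative viability is the nuclei count for treated wells divided by that for vehicle wells, reported as medians of duplicate plates.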

[2] = tested on: LCLC-97TM1
Procedure, shortened: as §1

[3] = tested on: NCI-H1437
Procedure, shortened: as §1

[4] = tested on: NCI-H1650
Procedure, shortened: as §1

[5] = tested on: NCI-H1666
Procedure, shortened: as §1

[6] = tested on: NCI-H1792
Procedure, shortened: as §1

[7] = tested on: NCI-H1915
Procedure, shortened: as §1

[8] = tested on: NCI-H1975
Procedure, shortened: as §1

[9] = tested on: NCI-H2342
Procedure, shortened: as §1

[10] = tested on: NCI-H23
Procedure, shortened: as §1

[11] = tested on: NCI-H322M
Procedure, shortened: as §1

[12] = tested on: NCI-H358
Procedure, shortened: as §1

[13] = tested on: NCI-H441
Procedure, shortened: as §1

[14] = tested on: NCI-H460
Procedure, shortened: as §1

[15] = tested on: NCI-H520
Procedure, shortened: as §1

[16] = tested on: NCI-H522
Procedure, shortened: as §1

[17] = tested on: NCI-H596
Procedure, shortened: as §1

[18] = tested on: NCI-H647
Procedure, shortened: as §1

[19] = tested on: NCI-H661
Procedure, shortened: as §1

[20] = tested on: NCI-H727
Procedure, shortened: as §1

[21] = tested on: NCI-H838
Procedure, shortened: as §1

[22] = tested on: PC-3 [JPC-3]
Procedure, shortened: as §1

[23] = tested on: SK-LU-1
Procedure, shortened: as §1

Work on `Cc1csc(=NC2CCCCC2)n1/N=C/c1ccc(O)c(O)c1O` [MIM1] + CCNC(=O)c1noc(-c2cc(C(C)C)c(O)cc2O)c1-c1ccc(CN2CCOCC2)cc1 [Luminespib] (partner 0.01 µM) yielded a relative viability ([1]; first compound 0.2 µM) of 0.863, a relative viability ([1]; first compound 0.6325 µM) of 0.766 and a relative viability ([1]; first compound 2 µM) of 0.832. For the same molecule, the relative viability ([1]; first compound 6.325 µM) was 0.701, the relative viability ([1]; first compound 20 µM) was 0.617 and the relative viability ([2]; first compound 0.2 µM) was 0.783. The relative viability ([2]; first compound 0.6325 µM) was 0.733, the relative viability ([2]; first compound 2 µM) was 0.755 and the relative viability ([2]; first compound 6.325 µM) was 0.512. It also gave a relative viability ([2]; first compound 20 µM) of 0.238, a relative viability ([3]; first compound 0.2 µM) of 1.07 and a relative viability ([3]; first compound 0.6325 µM) of 1.1. It also gave a relative viability ([3]; first compound 2 µM) of 0.992, a relative viability ([3]; first compound 6.325 µM) of 0.846 and a relative viability ([3]; first compound 20 µM) of 0.452. The relative viability ([4]; first compound 0.2 µM) was 0.223, the relative viability ([4]; first compound 0.6325 µM) was 0.189 and the relative viability ([4]; first compound 2 µM) was 0.221. It also gave a relative viability ([4]; first compound 6.325 µM) of 0.19, a relative viability ([4]; first compound 20 µM) of 0.22 and a relative viability ([5]; first compound 0.2 µM) of 1.02. For the same molecule, the relative viability ([5]; first compound 0.6325 µM) was 1.13, the relative viability ([5]; first compound 2 µM) was 1.02 and the relative viability ([5]; first compound 6.325 µM) was 0.884. It also gave a relative viability ([5]; first compound 20 µM) of 0.767, a relative viability ([6]; first compound 0.2 µM) of 0.449 and a relative viability ([6]; first compound 0.6325 µM) of 0.43. The relative viability ([6]; first compound 2 µM) was 0.5, the relative viability ([6]; first compound 6.325 µM) was 0.398 and the relative viability ([6]; first compound 20 µM) was 0.396. It also gave a relative viability ([7]; first compound 0.2 µM) of 0.743, a relative viability ([7]; first compound 0.6325 µM) of 0.641 and a relative viability ([7]; first compound 2 µM) of 0.685. It also gave a relative viability ([7]; first compound 6.325 µM) of 0.579, a relative viability ([7]; first compound 20 µM) of 0.183 and a relative viability ([8]; first compound 0.2 µM) of 0.202. For the same molecule, the relative viability ([8]; first compound 0.6325 µM) was 0.261, the relative viability ([8]; first compound 2 µM) was 0.193 and the relative viability ([8]; first compound 6.325 µM) was 0.279. For the same molecule, the relative viability ([8]; first compound 20 µM) was 0.136, the relative viability ([9]; first compound 0.2 µM) was 0.739 and the relative viability ([9]; first compound 0.6325 µM) was 0.723. For the same molecule, the relative viability ([9]; first compound 2 µM) was 0.642, the relative viability ([9]; first compound 6.325 µM) was 0.624 and the relative viability ([9]; first compound 20 µM) was 0.985. It also gave a relative viability ([10]; first compound 0.2 µM) of 0.262, a relative viability ([10]; first compound 0.6325 µM) of 0.208 and a relative viability ([10]; first compound 6.325 µM) of 0.198. It also gave a relative viability ([10]; first compound 20 µM) of 0.211, a relative viability ([11]; first compound 0.2 µM) of 0.837 and a relative viability ([11]; first compound 0.6325 µM) of 0.771. The relative viability ([11]; first compound 2 µM) was 0.832, the relative viability ([11]; first compound 6.325 µM) was 0.729 and the relative viability ([11]; first compound 20 µM) was 0.31. It also gave a relative viability ([12]; first compound 0.2 µM) of 0.472, a relative viability ([12]; first compound 0.6325 µM) of 0.292 and a relative viability ([12]; first compound 2 µM) of 0.303. For the same molecule, the relative viability ([12]; first compound 6.325 µM) was 0.204, the relative viability ([12]; first compound 20 µM) was 0.211 and the relative viability ([13]; first compound 0.2 µM) was 0.253. The relative viability ([13]; first compound 2 µM) was 0.327, the relative viability ([13]; first compound 6.325 µM) was 0.354 and the relative viability ([13]; first compound 20 µM) was 0.191. For the same molecule, the relative viability ([14]; first compound 0.2 µM) was 0.0272, the relative viability ([14]; first compound 0.6325 µM) was 0.0322 and the relative viability ([14]; first compound 2 µM) was 0.0432. The relative viability ([14]; first compound 6.325 µM) was 0.0284, the relative viability ([14]; first compound 20 µM) was 0.0278 and the relative viability ([15]; first compound 0.2 µM) was 0.208. It also gave a relative viability ([15]; first compound 0.6325 µM) of 0.259, a relative viability ([15]; first compound 2 µM) of 0.178 and a relative viability ([15]; first compound 6.325 µM) of 0.274. It also gave a relative viability ([15]; first compound 20 µM) of 0.257, a relative viability ([16]; first compound 0.2 µM) of 1.23 and a relative viability ([16]; first compound 0.6325 µM) of 1.05. The relative viability ([16]; first compound 2 µM) was 1.03, the relative viability ([16]; first compound 6.325 µM) was 1.19 and the relative viability ([16]; first compound 20 µM) was 0.494. It also gave a relative viability ([17]; first compound 0.2 µM) of 1.03, a relative viability ([17]; first compound 0.6325 µM) of 0.879 and a relative viability ([17]; first compound 2 µM) of 0.939. For the same molecule, the relative viability ([17]; first compound 6.325 µM) was 0.918, the relative viability ([17]; first compound 20 µM) was 0.486 and the relative viability ([18]; first compound 0.2 µM) was 0.147. The relative viability ([18]; first compound 0.6325 µM) was 0.271, the relative viability ([18]; first compound 2 µM) was 0.18 and the relative viability ([18]; first compound 6.325 µM) was 0.198. For the same molecule, the relative viability ([18]; first compound 20 µM) was 0.0924, the relative viability ([19]; first compound 0.2 µM) was 0.92 and the relative viability ([19]; first compound 0.6325 µM) was 0.928. The relative viability ([19]; first compound 2 µM) was 0.86, the relative viability ([19]; first compound 6.325 µM) was 0.576 and the relative viability ([19]; first compound 20 µM) was 0.269. For the same molecule, the relative viability ([20]; first compound 0.2 µM) was 0.353, the relative viability ([20]; first compound 0.6325 µM) was 0.309 and the relative viability ([20]; first compound 2 µM) was 0.386. The relative viability ([20]; first compound 6.325 µM) was 0.386, the relative viability ([20]; first compound 20 µM) was 0.392 and the relative viability ([21]; first compound 0.2 µM) was 0.372. It also gave a relative viability ([21]; first compound 0.6325 µM) of 0.317, a relative viability ([21]; first compound 2 µM) of 0.288 and a relative viability ([21]; first compound 6.325 µM) of 0.267. For the same molecule, the relative viability ([21]; first compound 20 µM) was 0.16, the relative viability ([22]; first compound 0.2 µM) was 0.508 and the relative viability ([22]; first compound 0.6325 µM) was 0.661. It also gave a relative viability ([22]; first compound 2 µM) of 0.674, a relative viability ([22]; first compound 6.325 µM) of 0.65 and a relative viability ([22]; first compound 20 µM) of 0.594. It also gave a relative viability ([23]; first compound 0.2 µM) of 0.178, a relative viability ([23]; first compound 0.6325 µM) of 0.21 and a relative viability ([23]; first compound 2 µM) of 0.181. For the same molecule, the relative viability ([23]; first compound 6.325 µM) was 0.196 and the relative viability ([23]; first compound 20 µM) was 0.227.
